Experimental data: patent US7592005B2, “Monoclonal antibody” (Kirin Beer Kabushiki Kaisha, priority 2000, dated 2009)

Test system: IM9 cells
Experiment: Cellular cytotoxicity on human myeloma cell line IM9 (MTS)
Conditions: read-out: IC50, cellular cytotoxicity, free maytansine derivative
Description: In the same manner as in Example 11, the reactivity to the human myeloma cell line IM9 cell (ATCC CCL-159) was investigated. […] Thereafter, a solution of MTS (3-(4,5-dimethylthiazol-2-yl)-5-(3-carboxymethoxyphenyl)-2-(4-sulphophenyl)-2H-tetrazolium, Promega) was added to each well in amounts of 20 μl each, followed by culturing for an additional 2 hours. Subsequently, the absorbance at 490 nm of the surviving cells was assayed using a microplate reader (MTP-300, Corona Electric Co., Ltd.).

COc1cc2cc(c1Cl)N(C)C(=O)C[C@H](OC(=O)[C@H](C)N(C)C(=O)CCSSC)[C@]1(C)O[C@H]1[C@H](C)[C@@H]1C[C@@](O)(NC(=O)O1)[C@H](OC)/C=C/C=C(\C)C2 [May-SS-Me]
IC50: 10 nM
